Assay results taken from paper PMC6090556 (Neuron, 2018).
pIC50: −log10 of the molar value. Like-named read-outs stand apart in the source and are kept apart here. Marks after values point to notes of the source that are not given here.

Assays:
GluN1/GluN2C = GluN1/GluN2C (Rattus norvegicus, UniProt P35439+Q00961); settings: 5 ms pulse of 1 mM glutamate, continuous 100 μM glycine, n=8
GluN1/GluN2A = GluN1/GluN2A (Rattus norvegicus, UniProt P35439+Q00959); settings: 5 ms pulse of 1 mM glutamate, continuous 100 μM glycine, n=6
[1] = target: GluN1/GluN2AC1/GluN2CC2(NK) (Rattus norvegicus, UniProt P35439+Q00959+Q00961, N612K); test: Two-electrode voltage-clamp recordings in Xenopus oocytes; format: cell-based; settings: for GluN2AC1/GluN2CC2(NK) fitted response in saturating Zn2+ as percent of control: mean ± SEM; for pIC50: read-out: GluN2AC1/GluN2CC2(NK) EC50 (95% CI), IC50 in text, Zn2+ inhibition
Chain of GluN1/GluN2AC1/GluN2CC2(NK) (Q00961 20-836 N612K, other chains not shown): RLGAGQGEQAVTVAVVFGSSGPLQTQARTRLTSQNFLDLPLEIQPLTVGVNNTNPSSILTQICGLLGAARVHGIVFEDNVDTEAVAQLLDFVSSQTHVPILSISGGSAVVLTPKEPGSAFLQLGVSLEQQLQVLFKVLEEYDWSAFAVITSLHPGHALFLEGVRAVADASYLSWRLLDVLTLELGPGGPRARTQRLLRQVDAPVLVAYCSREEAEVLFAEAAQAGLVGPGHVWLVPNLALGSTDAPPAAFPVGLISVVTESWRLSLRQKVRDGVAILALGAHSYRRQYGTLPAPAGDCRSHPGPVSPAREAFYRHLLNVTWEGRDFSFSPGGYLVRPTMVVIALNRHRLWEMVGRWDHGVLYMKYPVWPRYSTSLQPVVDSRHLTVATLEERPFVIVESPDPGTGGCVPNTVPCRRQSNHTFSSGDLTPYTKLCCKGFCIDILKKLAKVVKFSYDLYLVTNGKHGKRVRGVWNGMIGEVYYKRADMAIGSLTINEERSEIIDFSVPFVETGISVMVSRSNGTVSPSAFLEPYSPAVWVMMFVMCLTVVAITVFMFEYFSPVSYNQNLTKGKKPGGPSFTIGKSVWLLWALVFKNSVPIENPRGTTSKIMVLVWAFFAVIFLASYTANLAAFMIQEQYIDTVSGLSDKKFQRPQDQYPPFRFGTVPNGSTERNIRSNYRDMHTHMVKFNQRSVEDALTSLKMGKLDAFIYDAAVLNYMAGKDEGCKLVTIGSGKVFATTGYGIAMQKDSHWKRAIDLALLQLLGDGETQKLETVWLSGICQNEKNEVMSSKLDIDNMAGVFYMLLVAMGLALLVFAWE
Chain of GluN1/GluN2AC1/GluN2CC2(NK) (Q00959 23-1464, other chains not shown): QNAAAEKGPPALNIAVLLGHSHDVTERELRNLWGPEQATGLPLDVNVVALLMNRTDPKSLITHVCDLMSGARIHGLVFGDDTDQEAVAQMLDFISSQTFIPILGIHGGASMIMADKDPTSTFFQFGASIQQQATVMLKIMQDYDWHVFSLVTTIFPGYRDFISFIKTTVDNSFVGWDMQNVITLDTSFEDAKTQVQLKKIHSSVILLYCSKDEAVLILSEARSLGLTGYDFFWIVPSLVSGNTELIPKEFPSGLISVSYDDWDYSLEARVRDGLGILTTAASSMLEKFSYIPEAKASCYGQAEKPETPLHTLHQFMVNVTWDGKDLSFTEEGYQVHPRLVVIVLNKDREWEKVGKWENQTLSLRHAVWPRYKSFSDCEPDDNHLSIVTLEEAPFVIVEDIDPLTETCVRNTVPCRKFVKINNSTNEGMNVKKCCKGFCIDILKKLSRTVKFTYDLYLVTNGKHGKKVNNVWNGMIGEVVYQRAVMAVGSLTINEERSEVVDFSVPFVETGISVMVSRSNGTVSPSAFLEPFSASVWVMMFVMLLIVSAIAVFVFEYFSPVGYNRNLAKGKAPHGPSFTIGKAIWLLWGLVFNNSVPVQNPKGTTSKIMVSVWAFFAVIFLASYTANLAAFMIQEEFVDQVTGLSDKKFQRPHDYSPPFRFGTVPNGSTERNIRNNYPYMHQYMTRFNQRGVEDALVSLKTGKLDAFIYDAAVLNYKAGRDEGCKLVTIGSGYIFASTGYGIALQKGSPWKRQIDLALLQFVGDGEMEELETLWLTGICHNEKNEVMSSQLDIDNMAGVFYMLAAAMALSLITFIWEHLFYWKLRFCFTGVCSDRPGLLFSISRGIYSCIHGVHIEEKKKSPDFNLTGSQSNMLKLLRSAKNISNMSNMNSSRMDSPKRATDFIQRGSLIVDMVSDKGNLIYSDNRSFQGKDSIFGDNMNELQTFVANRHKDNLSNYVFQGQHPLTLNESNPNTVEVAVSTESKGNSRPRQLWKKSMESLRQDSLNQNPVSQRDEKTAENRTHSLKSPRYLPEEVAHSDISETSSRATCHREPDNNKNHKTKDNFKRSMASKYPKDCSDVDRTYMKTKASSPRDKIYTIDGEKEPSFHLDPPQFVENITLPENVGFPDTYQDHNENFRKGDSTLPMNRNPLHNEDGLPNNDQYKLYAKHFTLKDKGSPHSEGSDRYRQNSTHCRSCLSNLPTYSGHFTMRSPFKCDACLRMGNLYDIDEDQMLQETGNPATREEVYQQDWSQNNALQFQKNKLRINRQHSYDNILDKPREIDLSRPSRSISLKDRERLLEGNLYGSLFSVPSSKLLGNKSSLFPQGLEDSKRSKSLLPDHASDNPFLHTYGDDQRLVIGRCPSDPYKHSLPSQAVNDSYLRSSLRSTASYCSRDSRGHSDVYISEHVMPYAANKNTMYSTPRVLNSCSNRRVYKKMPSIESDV

GluN1/GluN2AC1/GluN2AC2 = GluN1/GluN2AC1/GluN2AC2 (Rattus norvegicus, UniProt P35439+Q00959); test: as above
[2] = system: NMDARs in cultured cortical neurons transfected with GluN2C and GFP; format: cell-based, rat
[3] = system: NMDARs in cultured cortical neurons transfected with GFP alone (control); format: cell-based, rat
[4] = target: NMDARs in cerebellar granule cells, wild type mice (Mus musculus, UniProt P35436+P35438+Q01098); format: cell-based
Chain of NMDARs in cerebellar granule cells, wild type mice (P35436 23-1464, other chains not shown): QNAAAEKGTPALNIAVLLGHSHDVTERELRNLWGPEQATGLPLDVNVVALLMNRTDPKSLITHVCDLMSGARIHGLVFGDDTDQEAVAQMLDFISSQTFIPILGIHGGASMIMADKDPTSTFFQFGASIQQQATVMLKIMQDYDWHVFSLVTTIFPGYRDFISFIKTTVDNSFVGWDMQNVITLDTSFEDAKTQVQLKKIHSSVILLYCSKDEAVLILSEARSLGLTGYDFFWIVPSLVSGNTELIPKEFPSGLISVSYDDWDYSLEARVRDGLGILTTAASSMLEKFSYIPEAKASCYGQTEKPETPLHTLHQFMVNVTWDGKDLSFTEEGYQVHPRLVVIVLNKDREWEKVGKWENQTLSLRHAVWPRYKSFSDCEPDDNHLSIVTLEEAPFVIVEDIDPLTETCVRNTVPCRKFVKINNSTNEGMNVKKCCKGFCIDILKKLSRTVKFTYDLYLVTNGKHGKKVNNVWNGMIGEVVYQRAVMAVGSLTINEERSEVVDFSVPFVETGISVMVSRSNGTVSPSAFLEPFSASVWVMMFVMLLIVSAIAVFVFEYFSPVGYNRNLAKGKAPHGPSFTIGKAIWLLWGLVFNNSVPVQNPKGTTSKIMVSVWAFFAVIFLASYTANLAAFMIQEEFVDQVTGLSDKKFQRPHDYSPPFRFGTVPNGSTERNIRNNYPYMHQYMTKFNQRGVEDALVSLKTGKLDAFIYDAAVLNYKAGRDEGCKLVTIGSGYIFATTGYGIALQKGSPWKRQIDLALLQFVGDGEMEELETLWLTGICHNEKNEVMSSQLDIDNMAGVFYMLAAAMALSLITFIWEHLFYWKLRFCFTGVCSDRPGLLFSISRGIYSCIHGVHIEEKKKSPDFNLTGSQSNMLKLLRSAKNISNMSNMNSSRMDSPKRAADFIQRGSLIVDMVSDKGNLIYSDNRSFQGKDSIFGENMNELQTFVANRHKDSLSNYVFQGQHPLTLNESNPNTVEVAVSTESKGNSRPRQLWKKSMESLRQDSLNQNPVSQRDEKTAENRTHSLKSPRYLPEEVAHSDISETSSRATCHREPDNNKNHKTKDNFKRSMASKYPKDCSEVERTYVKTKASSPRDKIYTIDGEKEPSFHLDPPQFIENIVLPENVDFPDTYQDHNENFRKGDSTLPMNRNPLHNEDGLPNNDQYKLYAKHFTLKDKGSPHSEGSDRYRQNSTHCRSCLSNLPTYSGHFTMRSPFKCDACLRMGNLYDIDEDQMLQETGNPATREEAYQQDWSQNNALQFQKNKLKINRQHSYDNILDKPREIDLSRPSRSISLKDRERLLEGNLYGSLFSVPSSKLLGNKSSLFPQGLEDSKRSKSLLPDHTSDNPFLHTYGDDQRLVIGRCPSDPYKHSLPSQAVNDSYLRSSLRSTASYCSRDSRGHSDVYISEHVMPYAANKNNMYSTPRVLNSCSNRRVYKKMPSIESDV
Chain of NMDARs in cerebellar granule cells, wild type mice (Q01098 20-1239, other chains not shown): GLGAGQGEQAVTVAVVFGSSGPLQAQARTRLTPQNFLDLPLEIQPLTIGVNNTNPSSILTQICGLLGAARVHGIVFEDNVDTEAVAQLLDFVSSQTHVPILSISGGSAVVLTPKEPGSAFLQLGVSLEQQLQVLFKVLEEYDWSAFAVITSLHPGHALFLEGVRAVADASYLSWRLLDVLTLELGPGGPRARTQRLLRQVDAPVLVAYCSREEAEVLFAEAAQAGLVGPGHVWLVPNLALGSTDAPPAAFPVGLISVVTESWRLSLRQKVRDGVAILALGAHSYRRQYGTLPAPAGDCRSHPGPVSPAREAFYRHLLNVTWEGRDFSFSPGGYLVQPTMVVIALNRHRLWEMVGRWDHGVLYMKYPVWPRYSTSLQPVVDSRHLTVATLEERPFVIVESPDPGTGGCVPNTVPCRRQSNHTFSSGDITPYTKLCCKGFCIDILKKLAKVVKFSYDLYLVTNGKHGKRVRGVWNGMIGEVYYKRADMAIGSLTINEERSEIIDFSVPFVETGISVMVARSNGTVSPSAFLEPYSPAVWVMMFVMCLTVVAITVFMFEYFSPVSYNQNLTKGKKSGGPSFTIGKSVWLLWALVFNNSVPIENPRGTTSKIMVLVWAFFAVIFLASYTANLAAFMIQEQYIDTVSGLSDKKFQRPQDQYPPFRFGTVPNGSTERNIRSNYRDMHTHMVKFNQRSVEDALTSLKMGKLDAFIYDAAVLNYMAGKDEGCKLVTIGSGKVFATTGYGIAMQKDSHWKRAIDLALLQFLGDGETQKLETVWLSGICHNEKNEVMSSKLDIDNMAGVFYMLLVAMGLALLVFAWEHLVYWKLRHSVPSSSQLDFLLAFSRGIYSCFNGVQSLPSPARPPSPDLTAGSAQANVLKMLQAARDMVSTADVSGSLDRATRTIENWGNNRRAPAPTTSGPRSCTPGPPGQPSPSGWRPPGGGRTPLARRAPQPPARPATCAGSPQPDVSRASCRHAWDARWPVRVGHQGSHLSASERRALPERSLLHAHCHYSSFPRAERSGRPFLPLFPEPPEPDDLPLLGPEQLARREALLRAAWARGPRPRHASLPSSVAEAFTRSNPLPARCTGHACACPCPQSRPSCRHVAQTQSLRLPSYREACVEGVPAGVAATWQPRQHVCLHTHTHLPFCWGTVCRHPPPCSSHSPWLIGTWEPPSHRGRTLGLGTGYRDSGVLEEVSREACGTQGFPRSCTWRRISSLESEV

[5] = target: NMDARs in cerebellar granule cells, Grin2A−/− mice (Mus musculus, UniProt P35438+Q01098); format: cell-based; settings: 50 μM PYD-106, Grin2A−/− slices, n=8 animals
Chain of NMDARs in cerebellar granule cells, Grin2A−/− mice (Q01098 20-1239, other chains not shown): as above

[6] = target: NMDARs in cerebellar granule cells, Grin2C−/− mice (Mus musculus, UniProt P35436+P35438); format: cell-based; settings: 50 μM PYD-106, Grin2C−/− slices, n=8 animals
[7] = system: GluN1/GluN2B/GluN2C receptors; test: Two-electrode voltage-clamp recordings in Xenopus oocytes; format: cell-based, rat; settings: Figure S1
[8] = system: NMDARs in cultured cortical neurons; format: cell-based, rat; settings: 400 μM DL-APV
[9] = target: NMDARs in cultured cortical neurons (Rattus norvegicus, UniProt P35439+Q00960); format: cell-based; settings: spermine potentiation of native GluN2B-mediated current responses, n=3

N[C@@H](CCC(=O)O)C(=O)O [Glutamate]
time constant for glutamate deactivation (τ) (GluN1/GluN2C): 477 ± 40 ms | time constant for glutamate deactivation (τ) (GluN1/GluN2A): 81 ± 8 ms

[Zn+2] [Zn^2+]
GluN2AC1/GluN2CC2(NK) fitted response in saturating Zn2+ as percent of control ([1]; pH 6.8, 0.1 mM Mg2+): 27±1.6 ^c % | GluN2AC1/GluN2CC2(NK) fitted response in saturating Zn2+ as percent of control ([1]; pH 7.3, 0.1 mM Mg2+): 57±0.4 ^c % | pIC50 ([1]; pH 6.8, 0.1 mM Mg2+): 7.72 | pIC50 ([1]; pH 7.3, 0.1 mM Mg2+): 7.35 | GluN2AC1/GluN2AC2 fitted response in saturating Zn2+ as percent of control (GluN1/GluN2AC1/GluN2AC2; pH 6.8, mean ± SEM): 21±1.7 ^c % | GluN2AC1/GluN2AC2 fitted response in saturating Zn2+ as percent of control (GluN1/GluN2AC1/GluN2AC2; pH 7.3, mean ± SEM): 57±2.0 ^c %

COc1ccc(OCC2c3cc(OC)c(OC)cc3CCN2C(=O)c2cccc(Cl)c2)cc1 (stereo not shown) [CIQ]
NMDAR-mediated current, % of control ([2]; 20 μM CIQ, GluN2C-transfected neurons, n=5): 145±9.4% | NMDAR current response in the presence of ifenprodil, % of baseline ([2]; CIQ, 3 μM ifenprodil, GluN2C-transfected neurons, n=4): 131±5% | NMDAR-mediated current, % of baseline ([3]; 20 μM CIQ, control (GFP) cortical neurons, n=4): 96±4.6% | granule cell response to pressure-applied NMDA, % of DCS ([4]; 20 μM CIQ, 30 μM DCS, wild type mice, n=6 animals): 141±6.7%

COC(=O)c1ccc(C2C(C(C)=O)=C(O)C(=O)N2CCc2c(C)[nH]c3ccccc23)cc1 (stereo not shown) [PYD-106]
NMDAR current response in the presence of ifenprodil, % of baseline ([2]; 50 μM PYD-106, 3 μM ifenprodil, GluN2C-transfected neurons, n=5): 72±6% | NMDAR current response, % of control ([2]; 50 μM PYD-106, GluN2C-transfected neurons, n=5): 89±1.6% | granule cell response to pressure-applied NMDA and glycine, % of control [5]: 164±17% | NMDAR current response, % of control ([3]; 50 μM PYD-106, GFP control neurons, n=5): 83±0.6% | granule cell response, % of control [6]: 90±7% | sensitivity to PYD-106 [7]: insensitive | granule cell response to pressure-applied NMDA, % of DCS alone ([4]; 50 μM PYD-106, continuous 30 μM DCS, wild type mice, n=8 animals): 84±3.8% | effect on NMDA responses with glycine as the co-agonist ([4]; wild type granule cells, n=3 animals, data not shown): no effect

NC(CCCP(=O)(O)O)C(=O)O (racemic) [DL-APV, D,L-2-amino-5-phosphonovalerate]
current response, % of control [8]: 3.4±0.7%

NCCCNCCCCNCCCN [Spermine]
NMDAR current, % of baseline responses [9]: 142±7.2%
